Test results as given in patent US20250009692A1, “Micronutrient composition to prevent and reverse protein glycation during oxidative stress in human” (priority 2023, published 2025).

Key:
[1] = test system: subunit I of Complex IV (COX-I); assay: Mitobiogenesis In-Cell ELISA, COX-I levels in H9c2 cells; assay type: cell-based, Rat; settings: H9c2 heart muscle cells, 24 hours treatment; FIG. 7
Description: (§1) Mitobiogenesis: MitoBiogenesis™ In-Cell ELISA Kit (Colorimetric) was purchased from Abcam (Cambridge, UK). H9c2 Cells were grown to confluency in 96 well plates and treated with test ingredients for 24 hours at 37° C. Media was removed and cells were washed with Phosphate Buffered Saline provided in the kit. The cells were then fixed and processed as per the protocol provided with the kit. This assay was used to quantify two mitochondrial proteins: subunit I of Complex IV (COX-I) and the 70 kDa subunit of Complex II (SDH-A). No treatment control was used to show relative protein levels in each case.

[2] = test system: Succinate Dehydrogenase (SDH) subunit A; assay: Mitobiogenesis In-Cell ELISA, SDH-A levels in H9c2 cells; assay type: cell-based, Rat; settings: H9c2 cardiac muscle cells, 24 hours treatment; FIG. 6
Description: as §1

[3] = test system: Microglial Cells (IMG) exposed to Hydrogen Peroxide; assay: Cell Protection from Oxidative Stress (Alamar Blue viability); assay type: cell-based, mice; settings: IMG cells pretreated 24 hours, H2O2 1 hour, 24 hours recovery; FIG. 8
Text: Cell Lines: Rat Cardiomyoblasts (H9c2) were obtained from ATCC (Virginia, USA). […] Cells were maintained in Dulbecco's Modified Eagle's Medium (DMEM) from Thermofisher (MA, USA) supplemented with 10% Fetal Bovine Serum (FBS) from Thermofisher (MA, USA) and 1% Penicillin-Streptomycin (PS) from MilliporeSigma (MA, USA). Microglial Cells (IMG) were obtained from Kerafast (MA, USA). It is an immortalized microglial cell line isolated from the brains of adult mice. Cells were maintained in DMEM supplemented with 10% FBS and 1% PS.
Cell Protection from Oxidative Stress: IMG cells were grown to confluency and pretreated with test compounds for 24 hours at 37° C. Media was removed and cells were exposed to Hydrogen Peroxide for 1 hour at 37° C. After one hour, H2O2 was removed and cells were incubated in DMEM supplemented with 1% BSA for a further 24 hours at 37° C. to allow them to stabilize. Subsequently, cell viability was assessed using Alamar Blue Cell Viability Reagent from Thermofisher (MA, USA). Alamar Blue Reagent is an oxidized form of redox indicator that is blue in color. When incubated with viable cells, the reagent changes color from blue to red and can be measured by absorbance at 570 nm.
We tested protective effects of individual natural compounds and their combinations in microglial cells exposed to oxidative stress generated by hydrogen peroxide.

| Molecule | increase of Cox-1 levels compared to control [1] | increase of SDH levels compared to control [2] | survival of cells exposed to hydrogen peroxide (viable cells) [3] |
| --- | --- | --- | --- |
| N[C@@H](CS)C(=O)O [cysteine, L Cysteine] | 41% |  |  |
| O=C([O-])CC(O)C(=O)[O-].[Mg+2] (stereo not drawn) [magnesium malate, Magnesium Malate] |  | 86% | about 50% |
| CSCC[C@H](N)C(=O)O [methionine, Methionine] |  |  | about 50% |
| CC(=O)C(=O)[O-].[Na+] [sodium pyruvate, Sodium Pyruvate] |  | 54% |  |
| Magnesium Citrate |  |  | about 50% |
